Data reported in patent US20230374035A1, “RAS INHIBITORS” (Revolution Medicines, Inc., priority 2019, published 2023).

Key:
NRAS Q61R = NRAS Q61R (Homo sapiens, UniProt P01111+P62937, Q61R); experiment: Disruption of BRAF RBD interaction with Ras (FRET / MOA assay); type: biochemical; conditions: read-out: NRAS Q61R FRET data IC50
Procedure: (§1) Compound is present in plate wells as a 10-point 3-fold dilution series starting at a final concentration of 30 μM. […] Compounds that facilitate disruption of a Ras:RAF complex are identified as those eliciting a decrease in the TR-FRET ratio relative to DMSO control wells.
(§2) Note—The following protocol describes a procedure for monitoring disruption of K-Ras G12C (GMP-PNP) binding to BRAF^RBD by a compound of the invention. This protocol may also be executed substituting other Ras proteins or nucleotides.
(§3) The purpose of this biochemical assay was to measure the ability of test compounds to facilitate ternary complex formation between a nucleotide-loaded K-Ras isoform and Cyclophilin A; the resulting ternary complex disrupts binding to a BRAF^RBD construct, inhibiting K-Ras signaling through a RAF effector. Data is reported as IC50 values.
(§4) Compound was present in plate wells as a 10-point 3-fold dilution series starting at a final concentration of 30 μM. […] Compounds that facilitate disruption of a K-Ras:RAF complex were identified as those eliciting a decrease in the TR-FRET ratio relative to DMSO control wells.

NRAS Q61K = NRAS Q61K (Homo sapiens, UniProt P01111+P62937, Q61K); experiment: as above; type: biochemical; conditions: read-out: NRAS Q61K FRET data IC50
Chain of NRAS Q61K (P01111 whole entry Q61K): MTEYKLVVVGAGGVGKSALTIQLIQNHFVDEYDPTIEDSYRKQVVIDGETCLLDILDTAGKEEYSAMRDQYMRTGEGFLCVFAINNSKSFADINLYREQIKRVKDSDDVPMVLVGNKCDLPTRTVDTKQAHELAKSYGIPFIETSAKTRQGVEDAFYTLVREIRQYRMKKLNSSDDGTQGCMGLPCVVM
Chain of NRAS Q61K (P62937 whole entry): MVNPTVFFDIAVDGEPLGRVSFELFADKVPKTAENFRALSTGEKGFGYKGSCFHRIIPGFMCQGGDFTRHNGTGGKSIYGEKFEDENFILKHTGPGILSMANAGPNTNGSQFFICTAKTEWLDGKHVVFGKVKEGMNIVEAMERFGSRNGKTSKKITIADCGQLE
Procedure: as §1, §2, §3, §4

NCI-H358 (K-Ras G12C) = experiment: CellTiter-Glo Cell Viability Assay; type: cell-based; conditions: Homo sapiens, NCI-H358, 120 h; H358, 5-day treatment
Procedure: Determination of Cell Viability in RAS Mutant Cancer Cell Lines
Protocol: CellTiter-Glo® Cell Viability Assay
Note—The following protocol describes a procedure for monitoring cell viability of K-Ras mutant cancer cell lines in response to a compound of the invention. Other RAS isoforms may be employed, though the number of cells to be seeded will vary based on cell line used.
Test compounds (132.5 nl) were directly dispensed into the assay plates containing cells. […] On day 5, assay plates and their contents were equilibrated to room temperature for approximately 30 minutes. […] Luminescence was measured using the PerkinElmer Enspire. Data were normalized by the following: (Sample signal/Avg. DMSO)*100. The data were fit using a four-parameter logistic fit.

Chain of NRAS Q61R (P01111 whole entry Q61R): as the sequence (P01111 whole entry Q61K) above, with K61R counted along it
Chain of NRAS Q61R (P62937 whole entry): as the sequence (P62937 whole entry) above

| SMILES | IC50 (NRAS Q61R) | IC50 (NRAS Q61K) | IC50 (NCI-H358 (K-Ras G12C)) |
| --- | --- | --- | --- |
| CCn1c(-c2cccnc2[C@H](C)OC)c2c3cc(ccc31)-c1csc(n1)C[C@H](NC(=O)[C@H](C(C)C)N(C)C(=O)N1CCN(C(C)=O)CC1)C(=O)N1CCC[C@H](N1)C(=O)OCC(C)(C)C2 (atropisomer, axis not shown) [Compound A291] | 10 to 100 nM | 10 to 100 nM | < 10 nM |
| CCn1c(-c2cccnc2[C@H](C)OC)c2c3cc(ccc31)-c1csc(n1)C[C@H](NC(=O)[C@H](C(C)C)N(C)C(=O)N1C[C@H]3COC[C@H]3C1)C(=O)N1CCC[C@H](N1)C(=O)OCC(C)(C)C2 (atropisomer, axis not shown) [Compound A312] | 10 to 100 nM | 10 to 100 nM | – |
| CCn1c(-c2cccnc2[C@H](C)OC)c2c3cc(ccc31)-c1cc(O)cc(c1)C[C@H](NC(=O)[C@H](C(C)C)N(C)C(=O)[C@@H]1OCC[C@@H]1c1ccccc1)C(=O)N1CCC[C@H](N1)C(=O)OCC(C)(C)C2 (atropisomer, axis not shown) [Compound A415] | 10 to 100 nM | 10 to 100 nM | – |
| CCn1c(-c2cccnc2[C@H](C)OC)c2c3cc(ccc31)-c1csc(n1)C[C@H](NC(=O)[C@H](C(C)C)N(C)C(=O)N(C)N(C)C)C(=O)N1CCC[C@H](N1)C(=O)OCC(C)(C)C2 (atropisomer, axis not shown) [Compound A454] | 10 to 100 nM | 10 to 100 nM | – |
| CCn1c(-c2cccnc2[C@H](C)OC)c2c3cc(ccc31)-c1csc(n1)C[C@H](NC(=O)[C@H](C(C)C)N(C)C(=O)N1CCOC3(COC3)C1)C(=O)N1CCC[C@H](N1)C(=O)OCC(C)(C)C2 (atropisomer, axis not shown) [Compound A475] | 10 to 100 nM | 10 to 100 nM | – |
| CCn1c(-c2cccnc2[C@H](C)OC)c2c3cc(ccc31)-c1csc(n1)C[C@H](NC(=O)[C@H](C(C)C)N(C)C(=O)N1CC([C@H](CO)OC)C1)C(=O)N1CCC[C@H](N1)C(=O)OCC(C)(C)C2 (atropisomer, axis not shown) [Compound A515] | – | 10 to 100 nM | < 10 nM |
| CCn1c(-c2cccnc2[C@H](C)OC)c2c3cc(ccc31)-c1csc(n1)C[C@H](NC(=O)[C@H](C(C)C)N(C)C(=O)N1CC(C(=O)N3CCOCC3)C1)C(=O)N1CCC[C@H](N1)C(=O)OCC(C)(C)C2 (atropisomer, axis not shown) [Compound A543] | – | 10 to 100 nM | < 10 nM |
| CCn1c(-c2cccnc2[C@H](C)OC)c2c3cc(ccc31)-c1csc(n1)C[C@H](NC(=O)[C@H](C(C)C)N(C)C(=O)N1CC(S(=O)(=O)N(C)C)C1)C(=O)N1CCC[C@H](N1)C(=O)OCC(C)(C)C2 (atropisomer, axis not shown) [Compound A551] | – | 10 to 100 nM | < 10 nM |
| CCn1c(-c2cccnc2[C@H](C)OC)c2c3cc(ccc31)-c1csc(n1)C[C@H](NC(=O)[C@H](C(C)C)N(C)C(=O)N1CCC13COC3)C(=O)N1CCC[C@H](N1)C(=O)OCC(C)(C)C2 (atropisomer, axis not shown) [Compound A560] | 10 to 100 nM | 10 to 100 nM | – |
| CCn1c(-c2cccnc2[C@H](C)OC)c2c3cc(ccc31)-c1cc(O)cc(c1)C[C@H](NC(=O)[C@H](C(C)C)N(C)C(=O)[C@@H]1OCC[C@H]1c1ccccc1)C(=O)N1CCC[C@H](N1)C(=O)OCC(C)(C)C2 (atropisomer, axis not shown) [Compound A584] | 10 to 100 nM | 10 to 100 nM | – |
| CCn1c(-c2cccnc2[C@H](C)OC)c2c3cc(ccc31)-c1csc(n1)C[C@H](NC(=O)[C@H](C(C)C)N(C)C(=O)N1CCO[C@H](CN(C)C)C1)C(=O)N1CCC[C@H](N1)C(=O)OCC(C)(C)C2 (atropisomer, axis not shown) [Compound A590] | – | 10 to 100 nM | < 10 nM |
| CCn1c(-c2cccnc2[C@H](C)OC)c2c3cc(ccc31)-c1cc(O)cc(c1)C[C@H](NC(=O)C1CCC3C1C3(F)F)C(=O)N1CCC[C@H](N1)C(=O)OCC(C)(C)C2 (some centres unmarked) [Compound A181] | > 10000 nM | – | – |
| CCn1c(-c2cccnc2[C@H](C)OC)c2c3cc(ccc31)-c1csc(n1)C[C@H](NC(=O)[C@H](C(C)C)N(C)C(=O)N1CCC(C(=O)C(F)(F)F)CC1)C(=O)C1CCC[C@H](N1)C(=O)OCC(C)(C)C2 [Compound A422] | 10 to 100 nM | 10 to 100 nM | – |
